Several values for one entry are separate records, joined by “and”; a condition that tells them apart may be missing. Equal entries are not always repeated. Entries after “also recorded” stand apart in the source; their conditions may differ.
What was measured:
[1] = system: human α3β2 nAChR; format: cell-based
[2] = biological target: T1, human α7 nAChR (Homo sapiens, UniProt P36544); format: cell-based
T1 construct: expressed in transfected cells; host or cells: Xenopus laevis oocytes injected with cRNA (55.8 ng per oocyte); the cDNA clone was a gift of Dr. J. Michael McIntosh, University of Utah
T1 sequence (P36544 23-502): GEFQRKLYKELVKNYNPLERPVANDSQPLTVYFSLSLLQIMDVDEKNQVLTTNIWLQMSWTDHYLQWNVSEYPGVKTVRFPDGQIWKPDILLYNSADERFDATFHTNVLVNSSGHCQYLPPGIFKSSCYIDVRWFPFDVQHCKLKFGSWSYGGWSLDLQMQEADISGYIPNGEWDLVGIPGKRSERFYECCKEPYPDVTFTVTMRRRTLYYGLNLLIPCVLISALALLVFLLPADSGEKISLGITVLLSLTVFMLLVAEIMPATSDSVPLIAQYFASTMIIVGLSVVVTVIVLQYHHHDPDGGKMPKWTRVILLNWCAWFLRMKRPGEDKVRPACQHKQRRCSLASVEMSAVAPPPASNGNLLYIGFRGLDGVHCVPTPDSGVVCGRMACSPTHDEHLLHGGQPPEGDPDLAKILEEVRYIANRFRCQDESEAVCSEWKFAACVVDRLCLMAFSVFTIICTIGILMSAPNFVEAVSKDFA

αD-PiXXA [F7-3]
inhibition of the ACh-induced response on hα3β2 nAChRs by purified peptide [1]: 6.7 ± 3.1%
effect on hα3β2 nAChRs (in words) ([1]; 6.5 μM): did not significantly affect
reversibility of the effect of purified peptide on hα7 nAChR (in words) [2]: slowly reversible; also recorded: very slowly reversible
selectivity hα7 over hα3β2 (in words) [2]: selective for hα7 nAChRs
time to return to the initial activity after starting the washout, hα7 nAChR [2]: 21 min and ~ 21 min
IC50 ([2]; read-out: half-maximal inhibitory concentration (IC50) on hα7 nAChRs): 6.2 µM

Source: PMC6669827 (Toxins, 2019)
